# “Also recorded” adds a separate entry of the source.
# Assays:
# Assay type in all cases: physicochemical
# [1] = Stability test (appearance, related substances, XRPD) under high humidity, 60° C. and light
# Procedure: Experiment Method: The test product was placed under high humidity (25° C./RH 92.5% or 40° C./RH 75%) conditions or under 60° C. conditions for 10 days, and samples were taken on the 5th and 10th days, respectively; and placed under light (4500 LX±500 LX) conditions for 10 days, a sample was taken on the 10th day and tested for related substances and XRPD, and the same was compared with the sample of day 0.
# Relevant substances: Measured according to Chinese Pharmacopoeia, 2015 edition, Volume II, Appendix V D High Performance Liquid Chromatography.
# XRPD measurement: Measured according to Chinese Pharmacopoeia, 2015 edition, Volume IV, 0451 X-Ray Diffraction Method.
# The test product was placed under 25° C./RH 92.5% or under 60° C. conditions for 10 days, and was sampled on the 5th and 10th days respectively; the test product was placed under light (4500 LX±500 LX) or 40° C./RH 75% conditions for 10 days, sampled on the 10th day and tested for related substances and XRPD, and compared with the sample of day 0.
# Related substances: Measured according to Chinese Pharmacopoeia, 2015 edition, Volume II, Appendix V D High Performance Liquid Chromatography.
# XRPD Measurement: Chinese Pharmacopoeia, 2015 edition, Volume IV, 0451 X-Ray Diffraction Method.
# [2] = Hygroscopicity test; conditions: Chinese Pharmacopoeia 2015, 9103
# Source text: Measurement method: Measured according to Chinese Pharmacopoeia, 2015 edition, Volume IV, General Principles, 9103 Guiding Principles for Hygroscopicity Test on Drugs.
# [3] = Particle size measurement (laser particle size analyzer); conditions: water dispersant, Tween 80
# Procedure: An appropriate amount of the test product was taken, 0.1 mL of a 1% Tween 80 solution was added to reduce the surface tension, and water was used as a dispersant to prepare a uniformly dispersed suspension. The same was placed in a sample dispersion device, the stirring speed was adjusted to 2000 rpm, ultrasonication was carried out for 2 min at an ultrasonic frequency of 7 KHz, and measurement was carried out.
# [4] = Compressibility experiment (tablet hardness vs tablet thickness); conditions: for Maximum tablet hardness: as tablet thickness decreases (tableting force increases)
# Source text: The change of tablet hardness with tablet thickness was investigated, and compressibility was compared.
# [5] = Tablet disintegration; conditions: 40 mg tablet with adjuvants
# Source text: (§1) The disintegration and dissolution was investigated under the following conditions.
# (§2) Dissolution Method: Paddle method (Chinese Pharmacopoeia, 2015 edition, Volume IV, 0931 Dissolution and Release Measurement methods, Method II); medium: 0.2% SDS aqueous solution; and rotation speed: 50 r/min.
# [6] = Tablet dissolution, paddle method; conditions: 0.2% SDS aqueous solution, 50 r/min
# Source text: as §1, §2
compound,measurement,setting,value
CCN1CCN(Cc2cnc(Nc3cc(-c4cc(F)c5nc(C)n(C(C)C)c5c4)c(F)cn3)nc2)CC1 [Crystal form A of the compound of formula (I)] [5-((4-ethylpiperazin-1-yl)methyl)-N-(5-fluoro-4-(4-fluoro-1-isopropyl-2-methyl-1H-benzo[d]imidazol-6-yl)pyridin-2-yl)pyrimidin-2-amine],Appearance,[1]; 0 day,Off-white
same,Related substance (%),[1]; 0 day,0.11%
same,XRPD (solid form found),[1]; 0 day,Crystal form A
same,Appearance,"[1]; 25° C./RH 92.5% Open, 5 day",Off-white
same,Related substance (%),"[1]; 25° C./RH 92.5% Open, 5 day",0.09%
same,XRPD (solid form found),"[1]; 25° C./RH 92.5% Open, 5 day",Crystal form A
same,Appearance,"[1]; 25° C./RH 92.5% Open, 10 day",Off-white
same,Related substance (%),"[1]; 25° C./RH 92.5% Open, 10 day",0.09%
same,XRPD (solid form found),"[1]; 25° C./RH 92.5% Open, 10 day",Crystal form A
same,Appearance,"[1]; 40° C./RH 75% Closed, 5 day",Off-white
same,Related substance (%),"[1]; 40° C./RH 75% Closed, 5 day",0.10%
same,XRPD (solid form found),"[1]; 40° C./RH 75% Closed, 5 day",Crystal form A
same,Appearance,"[1]; 40° C./RH 75% Closed, 10 day",Off-white
same,Related substance (%),"[1]; 40° C./RH 75% Closed, 10 day",0.20%
same,XRPD (solid form found),"[1]; 40° C./RH 75% Closed, 10 day",Crystal form A
same,Appearance,"[1]; 40° C./RH 75% Open, 5 day",Off-white
same,Related substance (%),"[1]; 40° C./RH 75% Open, 5 day",0.10%
same,XRPD (solid form found),"[1]; 40° C./RH 75% Open, 5 day",Crystal form A
same,Appearance,"[1]; 40° C./RH 75% Open, 10 day",Off-white
same,Related substance (%),"[1]; 40° C./RH 75% Open, 10 day",0.20%
same,XRPD (solid form found),"[1]; 40° C./RH 75% Open, 10 day",Crystal form A
same,Appearance,"[1]; 60° C. Closed, 5 day",Off-white
same,Related substance (%),"[1]; 60° C. Closed, 5 day",0.09%
same,XRPD (solid form found),"[1]; 60° C. Closed, 5 day",Crystal form A
same,Appearance,"[1]; 60° C. Closed, 10 day",Off-white
same,Related substance (%),"[1]; 60° C. Closed, 10 day",0.11%
same,XRPD (solid form found),"[1]; 60° C. Closed, 10 day",Crystal form A
same,Appearance,"[1]; 60° C. Open, 5 day",Off-white
same,Related substance (%),"[1]; 60° C. Open, 5 day",0.11%
same,XRPD (solid form found),"[1]; 60° C. Open, 5 day",Crystal form A
same,Appearance,"[1]; 60° C. Open, 10 day",Off-white
same,Related substance (%),"[1]; 60° C. Open, 10 day",0.14%
same,XRPD (solid form found),"[1]; 60° C. Open, 10 day",Crystal form A
same,"Change of properties (appearance, related substances, XRPD)","[1]; 60° C. or light conditions, 10 days",no obvious change
same,Appearance,"[1]; Light (4500 LX±500 LX), 10 day",Off-white
same,Related substance (%),"[1]; Light (4500 LX±500 LX), 10 day",0.09%
same,XRPD (solid form found),"[1]; Light (4500 LX±500 LX), 10 day",Crystal form A
same,Hygroscopicity results,[2],No or almost no moisture
same,Moisture absorption weight gain (%),[2],0.003%
same,"Particle size distribution, 10% of the sample",[3],≤ 2.501 μm
same,"Particle size distribution, 50% of the sample",[3],≤ 10.432 μm
same,"Particle size distribution, 90% of the sample",[3],≤ 59.852 μm
same,Hardness of tablet,"[4]; Tablet thickness 0.9 mm, ""/"" means no tablet can be formed at that thickness",2.97 kg
same,Hardness of tablet,"[4]; Tablet thickness 1.3 mm, ""/"" means no tablet can be formed at that thickness",3.50 kg
same,Hardness of tablet,[4]; Tablet thickness 1.8 mm,5.40 kg
same,Hardness of tablet,[4]; Tablet thickness 2.0 mm,1.76 kg
same,Hardness of tablet,[4]; Tablet thickness 2.4 mm,0 kg
same,Maximum tablet hardness,[4],about 5.4 kg
same,Disintegration time,[5],4 min
same,Time to complete dissolution,[6],≤ 60 min
same,Cumulative dissolution (%),[6]; 5 min,69.2%
same,Cumulative dissolution (%),[6]; 10 min,90.7%
same,Cumulative dissolution (%),[6]; 15 min,93.8%
same,Cumulative dissolution (%),[6]; 30 min,96.6%
same,Cumulative dissolution (%),[6]; 45 min,97.5%
same,Cumulative dissolution (%),[6]; 60 min,97.9%
"CCN1CCN(Cc2cnc(Nc3cc(-c4cc(F)c5nc(C)n(C(C)C)c5c4)c(F)cn3)nc2)CC1 [Compound of formula (I), 5-((4-ethylpiperazin-1-yl)methyl)-N-(5-fluoro-4-(4-fluoro-1-isopropyl-2-methyl-1H-benzo[d]imidazol-6-yl)pyridin-2-yl)pyrimidin-2-amine]",Appearance,[1]; 0 day,Off-white
same,Related substance (%),[1]; 0 day,0.14%
same,XRPD (solid form found),[1]; 0 day,Amorphous
same,Appearance,"[1]; 25° C./RH 92.5% Open, 5 day",Off-white
same,Related substance (%),"[1]; 25° C./RH 92.5% Open, 5 day",0.14%
same,XRPD (solid form found),"[1]; 25° C./RH 92.5% Open, 5 day",Amorphous
same,Appearance,"[1]; 25° C./RH 92.5% Open, 10 day",Off-white
same,Related substance (%),"[1]; 25° C./RH 92.5% Open, 10 day",0.19%
same,XRPD (solid form found),"[1]; 25° C./RH 92.5% Open, 10 day",Amorphous
same,Appearance,"[1]; 40° C./RH 75% Open, 10 day",Off-white
same,Related substance (%),"[1]; 40° C./RH 75% Open, 10 day",0.19%
same,XRPD (solid form found),"[1]; 40° C./RH 75% Open, 10 day",Amorphous
same,Appearance,"[1]; 60° C. Open, 5 day",Light yellow
same,Related substance (%),"[1]; 60° C. Open, 5 day",0.67%
same,XRPD (solid form found),"[1]; 60° C. Open, 5 day",Amorphous
same,Appearance,"[1]; 60° C. Open, 10 day",Light yellow
same,Related substance (%),"[1]; 60° C. Open, 10 day",1.15%
same,XRPD (solid form found),"[1]; 60° C. Open, 10 day",Amorphous
same,Appearance,"[1]; Light (4500 LX±500 LX), 10 day",Light yellow
same,Related substance (%),"[1]; Light (4500 LX±500 LX), 10 day",10.54%
same,XRPD (solid form found),"[1]; Light (4500 LX±500 LX), 10 day",Amorphous
same,Related substance (%),"[1]; Light (4500 LX±500 LX), 10 day, listed as amorphous form",up to 10.54%
same,Hygroscopicity results,[2],Moisture absorbability
same,Moisture absorption weight gain (%),[2],6.3%
same,Hardness of tablet,"[4]; Tablet thickness 1.8 mm, listed as amorphous form",2.75 kg
same,Hardness of tablet,"[4]; Tablet thickness 2.0 mm, listed as amorphous form",0.59 kg
same,Hardness of tablet,"[4]; Tablet thickness 2.4 mm, listed as amorphous form",0.72 kg
same,Maximum tablet hardness,[4]; listed as amorphous form,about 2.75 kg
same,Behaviour during tabletting (observation),"[4]; during the process of tabletting, listed as amorphous form",prone to wall sticking; also recorded: prone to capping
same,Disintegration behaviour (observation),[5],Absorbed water
same,Disintegration time,[5]; listed as Amorphous form,>30 min
same,Cumulative dissolution (%),"[6]; 5 min, listed as Amorphous form",1.0%
same,Cumulative dissolution (%),"[6]; 10 min, listed as Amorphous form",2.7%
same,Cumulative dissolution (%),"[6]; 15 min, listed as Amorphous form",4.6%
same,Cumulative dissolution (%),"[6]; 30 min, listed as Amorphous form",9.2%
same,Cumulative dissolution (%),"[6]; 45 min, listed as Amorphous form",13.2%
same,Cumulative dissolution (%),"[6]; 60 min, listed as Amorphous form",18.5%
